Assay results taken from patent US9682995B2, “Amino-substituted isothiazoles” (BAYER PHARMA AKTIENGESELLSCHAFT, priority 2013, dated 2017).

Columns and labels:
[1] = molecular target: human kinase Mps-1 (Homo sapiens (Human), UniProt P33981); test: Mps-1 kinase assay (TR-FRET); assay type: biochemical; details: 10 μM ATP; read-out: Mps1 avg (IC50 [mol/l])
Summary of the method: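 GST-tagged full-length human Mps-1 (~0.5 nM) preincubated 15 min with compound, then reacted 60 min at 22 °C with 10 μM ATP and 1 μM biotinylated peptide in Hepes pH 7.7 buffer. Phosphoproduct detected by TR-FRET (Eu anti-phospho-Ser/Thr, SA-XLent); 665/620 ratio normalised to no-inhibitor and no-enzyme controls.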

[2] = molecular target: CDK2/CycE (Homo sapiens (Human), UniProt P24941); test: CDK2/CycE kinase assay (TR-FRET); assay type: biochemical; details: 10 μM ATP; read-out: CDK2 avg (IC50 [mol/l])
Summary of the method: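 GST-tagged human CDK2 and GST-CycE from Sf9 cells (~130 ng/ml) were preincubated with compound for 15 min at 22 °C. Reaction with 10 μM ATP and 0.75 μM biotinylated peptide (final) ran 25 min at 22 °C, pH 8.0. Phospho-peptide was read by TR-FRET (665/620 nm ratio, anti-pRB antibody, Eu donor) and normalised to no-enzyme and no-inhibitor controls.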

Chain of human kinase Mps-1 (P33981 whole entry): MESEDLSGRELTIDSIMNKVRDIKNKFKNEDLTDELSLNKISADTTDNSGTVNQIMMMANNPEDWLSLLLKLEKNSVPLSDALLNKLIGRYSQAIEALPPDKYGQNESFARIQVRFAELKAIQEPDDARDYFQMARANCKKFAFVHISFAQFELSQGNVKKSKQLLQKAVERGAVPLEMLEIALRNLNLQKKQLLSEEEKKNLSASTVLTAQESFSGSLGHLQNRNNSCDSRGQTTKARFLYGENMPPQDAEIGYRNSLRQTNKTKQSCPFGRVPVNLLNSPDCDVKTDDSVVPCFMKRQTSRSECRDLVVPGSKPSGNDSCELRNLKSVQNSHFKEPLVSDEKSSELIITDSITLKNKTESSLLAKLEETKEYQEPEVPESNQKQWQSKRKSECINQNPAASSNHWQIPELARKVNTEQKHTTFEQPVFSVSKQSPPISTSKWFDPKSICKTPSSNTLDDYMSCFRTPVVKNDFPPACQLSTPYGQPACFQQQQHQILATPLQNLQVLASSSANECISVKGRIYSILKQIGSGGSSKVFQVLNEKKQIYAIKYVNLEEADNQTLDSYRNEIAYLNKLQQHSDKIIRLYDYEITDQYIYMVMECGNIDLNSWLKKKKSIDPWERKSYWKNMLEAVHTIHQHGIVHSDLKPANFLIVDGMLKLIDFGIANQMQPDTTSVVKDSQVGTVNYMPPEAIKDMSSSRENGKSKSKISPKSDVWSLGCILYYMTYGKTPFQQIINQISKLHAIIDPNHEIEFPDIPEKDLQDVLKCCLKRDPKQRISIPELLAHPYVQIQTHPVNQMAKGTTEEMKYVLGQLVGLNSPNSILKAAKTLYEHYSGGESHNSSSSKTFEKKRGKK

Row | IC50 [1] [µM] | IC50 [2] [µM] | Compound
1 | > 20 | > 20 | CCc1ccccc1NC(=O)c1c(C)nsc1Nc1cc(-n2ccnc2)ncn1 [Example 9, N-(2-Ethylphenyl)-5-{[6-(1H-imidazol-1-yl)pyrimidin-4-yl]amino}-3-methyl-1,2-thiazole-4-carboxamide]
2 | > 20 | > 20 | COc1ccc(NC(=O)c2c(C)nsc2Nc2nc3c(C(F)(F)F)cccc3s2)cc1F [Example 47, N-(3-Fluoro-4-methoxyphenyl)-3-methyl-5-{[4-(trifluoromethyl)-1,3-benzothiazol-2-yl]amino}-1,2-thiazole-4-carboxamide]
3 | > 20 | > 20 | COc1ccc(NC(=O)c2c(C)nsc2Nc2nccnc2C#N)cn1 [Example 24, 5-[(3-Cyanopyrazin-2-yl)amino]-N-(6-methoxypyridin-3-yl)-3-methyl-1,2-thiazole-4-carboxamide]
4 | > 20 | > 20 | CCOc1ccc(NC(=O)c2c(C)nsc2Nc2cnc3ccccc3n2)cn1 [Example 119, N-(6-Ethoxypyridin-3-yl)-3-methyl-5-(quinoxalin-2-ylamino)-1,2-thiazole-4-carboxamide]
5 | > 20 | > 20 | CCc1ccccc1NC(=O)c1c(C)nsc1Nc1nc2ccccc2o1 [Example 11, 5-(1,3-Benzoxazol-2-ylamino)-N-(2-ethylphenyl)-3-methyl-1,2-thiazole-4-carboxamide]
6 | > 20 | > 20 | Cc1nsc(Nc2ccc(C#N)cn2)c1C(=O)Nc1ccc(OC(C)C)nc1 [Example 110, 5-[(5-Cyanopyridin-2-yl)amino]-N-(6-isopropoxyridin-3-yl)-3-methyl-1,2-thiazole-4-carboxamide]
7 | > 20 | > 20 | Cc1nsc(Nc2cc(C#N)ccn2)c1C(=O)Nc1ccc(OC2CCCCC2)nc1 [Example 118, 5-[(4-Cyanopyridin-2-yl)amino]-N-[6-(cyclohexyloxy)pyridin-3-yl]-3-methyl-1,2-thiazole-4-carboxamide]
8 | 12 | > 20 | Cc1nsc(Nc2cncc(N(C)C)n2)c1C(=O)Nc1ccc(F)c(F)c1 [Example 105, N-(3,4-Difluorophenyl)-5-{[6-(dimethylamino)pyrazin-2-yl]amino}-3-methyl-1,2-thiazole-4-carboxamide]
